These results are taken from US20160375155A1, “Collagen Imaging Compositions” (Collagen Medical, LLC, priority 2015, published 2016).

One may read the pKd as the Kd on a negative log10 scale, so that one unit is a factor of ten.

One data set concerns the target T1, human type I collagen (Homo sapiens, UniProt P02452+P08123).
T1 construct: purchased Advanced Biomatrix 5007-A
The data set can be described thus: Collagen binding assay, dried human collagen plate. To be noted: 37° C., pH 7.4; collagen 5 μM; fit to 1 binding site. As to the method: 10 ml of a solution of 3 mg/ml of human type I collagen (VitroCol solution, Advanced Biomatrix, cat#5007-A) is dialyzed against 10 mM Phosphate (NaH2PO4), pH 4.2 at 4° C. with three changes of the dialysis buffer. The protein concentration is determined by liquid chromatography determination of hydroxyproline (P. Hutson, J. Chromatogr. B, 791 (2003) 427-430).
Ice-cold 1×PBS pH 10.8 is added to the collagen solution for a final collagen concentration of 10 μM, pH 7.4. Collagen solutions are gelled and dried down in the wells of a 96 well microtiter plate (Corning Polystyrene Flat Bottom, cat#3641). […] The final well content of gelled collagen is measured by determination of hydroxyproline and is around 180 μg/ml.
(§1) a serial dilution of 0.2 μM-30 μM of the peptide chelate is prepared in PBS, pH 7.4 (˜300 μL of solution for each concentration). […] The concentration of free, unbound compound in the sample supernatants and the concentration of compound in the reserved (total) sample are determined by ICP-MS (Agilent 7500, gadolinium concentration). The concentration of compound bound to collagen is determined as [bound]=[total]−[unbound].
(§2) The binding of compounds to human, rat and dog collagen (5 μM) was measured over the concentration range 0.2-5 μM of Comp ID Nos.: 1-4. […]

Data set [1] deals with T2, rat collagen (acid soluble, type I, rat tail) (Rattus norvegicus, UniProt P02454+P02466).
T2 construct: rat collagen (acid soluble, type I, rat tail, Millipore Inc, cat#08-115); purchased Millipore Inc 08-115; host or cells: rat tail
T2 sequence (P02454 152-1207 limits assumed): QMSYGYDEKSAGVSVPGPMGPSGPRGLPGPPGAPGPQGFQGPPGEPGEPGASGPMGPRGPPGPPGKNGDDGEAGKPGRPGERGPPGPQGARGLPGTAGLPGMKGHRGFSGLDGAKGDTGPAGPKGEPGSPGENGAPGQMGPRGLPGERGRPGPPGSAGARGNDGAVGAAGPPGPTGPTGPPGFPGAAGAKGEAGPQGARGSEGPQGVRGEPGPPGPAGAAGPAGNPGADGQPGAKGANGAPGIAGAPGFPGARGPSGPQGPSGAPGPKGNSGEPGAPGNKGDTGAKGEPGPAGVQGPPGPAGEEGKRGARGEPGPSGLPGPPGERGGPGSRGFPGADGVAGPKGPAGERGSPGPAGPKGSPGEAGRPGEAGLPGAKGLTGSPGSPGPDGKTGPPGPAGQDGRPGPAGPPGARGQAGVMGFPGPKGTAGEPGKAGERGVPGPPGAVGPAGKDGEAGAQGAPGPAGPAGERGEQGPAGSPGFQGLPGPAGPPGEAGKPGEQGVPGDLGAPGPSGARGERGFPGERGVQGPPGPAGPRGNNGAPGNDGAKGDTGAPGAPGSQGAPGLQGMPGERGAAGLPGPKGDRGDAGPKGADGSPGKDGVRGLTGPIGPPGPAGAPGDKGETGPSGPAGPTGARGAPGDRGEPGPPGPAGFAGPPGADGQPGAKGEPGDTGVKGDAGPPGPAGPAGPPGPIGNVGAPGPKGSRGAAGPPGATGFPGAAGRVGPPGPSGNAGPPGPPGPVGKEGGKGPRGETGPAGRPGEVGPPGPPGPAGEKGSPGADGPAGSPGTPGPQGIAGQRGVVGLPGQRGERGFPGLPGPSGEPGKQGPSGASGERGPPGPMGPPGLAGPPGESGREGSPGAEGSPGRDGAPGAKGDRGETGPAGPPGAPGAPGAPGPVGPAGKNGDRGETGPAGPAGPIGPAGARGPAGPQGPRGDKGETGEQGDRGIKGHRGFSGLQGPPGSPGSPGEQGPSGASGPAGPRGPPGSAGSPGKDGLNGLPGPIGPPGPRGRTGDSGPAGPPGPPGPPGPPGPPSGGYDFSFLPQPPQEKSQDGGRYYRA
T2 sequence (P02466 86-1125 limits assumed): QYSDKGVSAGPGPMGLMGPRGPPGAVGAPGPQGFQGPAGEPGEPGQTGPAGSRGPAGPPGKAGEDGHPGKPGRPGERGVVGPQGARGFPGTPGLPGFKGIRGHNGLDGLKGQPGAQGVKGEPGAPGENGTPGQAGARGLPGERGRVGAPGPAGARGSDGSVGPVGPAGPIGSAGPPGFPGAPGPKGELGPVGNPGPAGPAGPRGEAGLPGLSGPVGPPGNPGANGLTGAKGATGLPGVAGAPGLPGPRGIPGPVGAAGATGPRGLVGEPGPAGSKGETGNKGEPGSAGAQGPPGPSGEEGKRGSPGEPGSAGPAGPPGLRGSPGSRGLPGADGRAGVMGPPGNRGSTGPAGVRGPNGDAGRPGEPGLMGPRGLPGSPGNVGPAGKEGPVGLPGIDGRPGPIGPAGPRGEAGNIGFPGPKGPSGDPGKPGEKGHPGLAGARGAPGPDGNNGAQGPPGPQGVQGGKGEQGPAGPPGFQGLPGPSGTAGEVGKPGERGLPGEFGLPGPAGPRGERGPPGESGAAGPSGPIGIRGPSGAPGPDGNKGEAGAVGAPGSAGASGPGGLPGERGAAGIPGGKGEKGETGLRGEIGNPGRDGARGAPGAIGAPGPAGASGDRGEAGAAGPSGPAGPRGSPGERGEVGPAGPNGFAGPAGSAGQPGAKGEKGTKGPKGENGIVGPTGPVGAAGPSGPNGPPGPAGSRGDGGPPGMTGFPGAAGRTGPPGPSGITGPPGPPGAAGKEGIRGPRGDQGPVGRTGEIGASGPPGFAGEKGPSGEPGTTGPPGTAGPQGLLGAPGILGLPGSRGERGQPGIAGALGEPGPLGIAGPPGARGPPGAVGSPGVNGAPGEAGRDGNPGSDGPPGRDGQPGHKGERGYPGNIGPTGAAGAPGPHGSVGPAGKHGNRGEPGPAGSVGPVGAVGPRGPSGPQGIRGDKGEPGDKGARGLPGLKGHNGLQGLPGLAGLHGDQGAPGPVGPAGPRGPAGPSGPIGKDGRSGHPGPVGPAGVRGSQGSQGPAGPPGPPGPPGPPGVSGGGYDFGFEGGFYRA
The data set can be described thus: Collagen binding assay, dried rat collagen plate. Conditions: 37° C., pH 7.4; collagen 5 μM; fit to 1 binding site. The protocol:
10 ml of a 3.79 mg/mL solution of rat collagen (acid soluble, type I, rat tail, Millipore Inc, cat#08-115) is dialyzed against 10 mM Phosphate (NaH2PO4), pH 4.2 at 4° C. with three changes of the dialysis buffer.
Ice-cold 1×PBS pH 10.8 is added to the collagen solution for a final collagen concentration of 10 μM, pH 7.4. Collagen solutions are gelled and dried down in the wells of a 96 well microtiter plate (Corning Polystyrene Flat Bottom, cat#3641). 70 μl of 10 μM collagen is aliquoted into each well in every other lane in the plate (48 wells) and the plate is incubated at 37° C. for 18 hours to form a gel and evaporate to dryness. […] The final well content of gelled collagen is measured by determination of hydroxyproline and is around 180 μg/ml.
as §1, §2

Data set [2] in a line: Relaxivity in PBS (Bruker mq60, 60 MHz). The format is physicochemical. Conditions: pH 7.4 PBS at 1.4 T, 37° C. As to the method: The relaxivity of Compound ID Nos. 1, 2 and 4 were determined in PBS at 37° C. using a Bruker mq60 spectrometer operating at 60 MHz (1.4 tesla). Samples were equilibrated at concentrations ranging from 0-200 μM for at least 30 minutes at 37° C. T1 was measured using an inversion recovery sequence. Relaxivities were calculated by subtracting the relaxation rate of the buffer […] and then dividing the result by the concentration of Compound.

The subject of a further data set is myocardial collagen. Conditions: rat MI model, healthy and infarcted heart.
The target in data set [3] is Native canine Collagen Type I and III protein. The data set can be described thus: Collagen binding assay, dried dog collagen plate. To be noted: 37° C., pH 7.4; collagen 5 μM; fit to 1 binding site. The protocol: Canine collagen (Native canine Collagen Type I and III protein, YO protein AB, cat#739) is dissolved in 0.5 M acetic acid at 3.3 mg/ml by vortexing and shaking overnight at 4° C. The solution is then dialyzed against 10 mM Phosphate (NaH2PO4), pH 4.2 at 4° C. with three changes of the dialysis buffer.
Ice-cold 1×PBS pH 10.8 is added to the collagen solution for a final collagen concentration of 10 μM, pH 7.4. Collagen solutions are gelled and dried down in the wells of a 96 well microtiter plate (Corning Polystyrene Flat Bottom, cat#3641). 70 μl of 10 μM collagen is aliquoted into each well in every other lane in the plate (48 wells) and the plate is incubated at 37° C. for 18 hours to form a gel and evaporate to dryness. Ungelled collagen is removed by washing the collagen films with 200 μl 1×PBS pH 7.4 (four times, 15 min per wash). The thin collagen fibril film remains, coating the bottom of each well. After washing by PBS the plate is again dried at 37° C. for 2 hours and is stored at −20° C. The final well content of gelled collagen is measured by determination of hydroxyproline and is around 180 μg/ml.
a serial dilution of 0.2 μM-30 μM of the peptide chelate is prepared in PBS, pH 7.4 (˜300 μL of solution for each concentration). 90 μl of each concentration is also reserved in a HPLC glass vial as a sample to measure the total concentration. 140 μL of each dilution of peptide chelate is added to wells containing and non-containing collagen (control for nonspecific plastic binging). The plate is then incubated on a shaker table (300 rpm) for 2 hours at room temperature to allow the compound to bind. […] The concentration of free, unbound compound in the sample supernatants and the concentration of compound in the reserved (total) sample are determined by ICP-MS (Agilent 7500, gadolinium concentration). The concentration of compound bound to collagen is determined as [bound]=[total]−[unbound].
as §2

In data set [4] the test system is acute and chronic myocardial infarct (fibrosis). The format is in vivo, canine. Conditions: for CNR between infarct and blood: Compound ID No. 1 0.0075 mmol/kg, extracellular gadolinium 0.2 mmol/kg. From the text:
An experimental protocol was developed to test the ability of Compound ID No. 1 to differentiate acute from chronic myocardial infarction in an in-vivo large animal (canine) model. In this model, early following acute myocardial infarction, pathologic fibrosis has not fully developed within the infarct zone (fibrosis-poor), whereas in chronic MI (˜8 weeks following MI), dense fibrosis fully replaced necrotic myocardium (fibrosis-rich).
In the myocardial fibrosis canine model, a vascular occluder was placed surgically around the left anterior descending coronary artery (LAD) to allow occlusion and reperfusion. Two animals were studied following acute MI and two additional animals were studied both following acute MI, and chronically at 8 weeks. The LAD vessel was completely occluded for 70-90 minutes and then released to allow reperfusion. The chest was sutured closed, and the animal was allowed to recover. Imaging was performed on a 3 T clinical scanner in an acute (<1 week, minimal fibrosis expected in acute necrosis) and chronic (8 weeks, healing complete, necrotic myocardium replaced by dense collagenous scar) time point after infarction. For each time point, the animals undergo 2 scans separated by 48 hours with conventional gadolinium contrast (0.2 mmol/kg GdDTPA) and Compound ID No. 1 (0.0075 mmol/kg).
Imaging was performed on a 3 T clinical scanner (Siemens Verio). Breath holding was achieved by temporarily turning off the animal ventilator, and all images were ECG gated. Standard short and long axis cine imaging was performed throughout the left ventricle to identify left ventricular function and regional wall motion abnormalities. Delayed enhancement imaging (segmented 2D inversion recovery gradient echo) was performed prior to and serially following Compound ID No. 1 administration. Two strategies were employed: (1) a fixed inversion time was chosen to null pre-contrast myocardium (TI˜650 ms), and (2) a variable inversion time set to null post-contrast myocardium as is performed in traditional delayed enhancement imaging.
After imaging, animals were euthanized and post mortem analysis of myocardium was performed. Tissue was assessed grossly by histopathologic staining with triphenyltetrazolium chloride for myocardial infarction, and microscopically with Masson's trichrome staining for fibrosis. Additionally quantitative tissue analysis for hydroxyproline was used to measure total collagen content in tissue and compared to tissue gadolinium concentration by inductively coupled plasma-mass spectrometry. MR data was analyzed quantitatively for conspicuity of infarction and image quality as well as contrast to noise ratio (CNR) for infarct-normal myocardium and infarct-blood.

pKd: −log10 of the molar value. Like-named read-outs stand apart in the source and are kept apart here. Bridge positions count the residues as written; N and C are the ends. Square brackets hold non-standard residues; d marks the D form. Peptide text beside a SMILES is read from it. * marks the point of attachment. X1 = O=C(O)CN1CCN(CC(=O)O)CCN([C@H](CCC(=O)*)C(=O)O)CCN(CC(=O)O)CC1; Bip = N[C@@H](Cc1ccc(-c2ccccc2)cc1)C(=O)O

T1 sequence (P02452 162-1218 limits assumed): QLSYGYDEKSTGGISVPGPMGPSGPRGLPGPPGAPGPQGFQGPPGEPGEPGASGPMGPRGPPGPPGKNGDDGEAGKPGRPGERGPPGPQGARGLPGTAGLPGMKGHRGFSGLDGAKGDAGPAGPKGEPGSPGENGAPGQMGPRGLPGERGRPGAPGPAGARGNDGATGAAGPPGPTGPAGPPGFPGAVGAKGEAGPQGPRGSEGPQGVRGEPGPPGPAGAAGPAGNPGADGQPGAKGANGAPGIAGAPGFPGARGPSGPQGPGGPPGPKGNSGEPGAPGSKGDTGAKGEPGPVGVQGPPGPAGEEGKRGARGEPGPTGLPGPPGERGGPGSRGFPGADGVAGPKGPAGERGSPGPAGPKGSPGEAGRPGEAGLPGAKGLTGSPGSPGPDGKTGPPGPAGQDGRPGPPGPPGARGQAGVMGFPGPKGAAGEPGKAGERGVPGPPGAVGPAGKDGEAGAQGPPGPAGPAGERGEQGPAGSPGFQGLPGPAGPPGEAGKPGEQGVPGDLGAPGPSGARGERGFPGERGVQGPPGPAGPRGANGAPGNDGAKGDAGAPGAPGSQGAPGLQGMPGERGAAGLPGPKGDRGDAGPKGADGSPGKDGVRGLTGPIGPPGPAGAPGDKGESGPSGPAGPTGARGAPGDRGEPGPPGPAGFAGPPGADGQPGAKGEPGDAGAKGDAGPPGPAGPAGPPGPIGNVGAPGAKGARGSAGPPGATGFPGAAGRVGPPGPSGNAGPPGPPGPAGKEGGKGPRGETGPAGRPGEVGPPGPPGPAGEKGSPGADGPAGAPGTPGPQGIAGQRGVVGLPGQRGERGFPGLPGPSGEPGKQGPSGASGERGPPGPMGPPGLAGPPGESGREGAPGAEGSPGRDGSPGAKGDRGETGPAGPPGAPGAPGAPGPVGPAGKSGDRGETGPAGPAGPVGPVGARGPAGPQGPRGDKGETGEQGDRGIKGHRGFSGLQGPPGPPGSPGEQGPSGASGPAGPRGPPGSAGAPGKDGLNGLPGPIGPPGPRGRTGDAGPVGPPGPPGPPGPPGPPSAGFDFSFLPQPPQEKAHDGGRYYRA
T1 sequence (P08123 80-1119 limits assumed): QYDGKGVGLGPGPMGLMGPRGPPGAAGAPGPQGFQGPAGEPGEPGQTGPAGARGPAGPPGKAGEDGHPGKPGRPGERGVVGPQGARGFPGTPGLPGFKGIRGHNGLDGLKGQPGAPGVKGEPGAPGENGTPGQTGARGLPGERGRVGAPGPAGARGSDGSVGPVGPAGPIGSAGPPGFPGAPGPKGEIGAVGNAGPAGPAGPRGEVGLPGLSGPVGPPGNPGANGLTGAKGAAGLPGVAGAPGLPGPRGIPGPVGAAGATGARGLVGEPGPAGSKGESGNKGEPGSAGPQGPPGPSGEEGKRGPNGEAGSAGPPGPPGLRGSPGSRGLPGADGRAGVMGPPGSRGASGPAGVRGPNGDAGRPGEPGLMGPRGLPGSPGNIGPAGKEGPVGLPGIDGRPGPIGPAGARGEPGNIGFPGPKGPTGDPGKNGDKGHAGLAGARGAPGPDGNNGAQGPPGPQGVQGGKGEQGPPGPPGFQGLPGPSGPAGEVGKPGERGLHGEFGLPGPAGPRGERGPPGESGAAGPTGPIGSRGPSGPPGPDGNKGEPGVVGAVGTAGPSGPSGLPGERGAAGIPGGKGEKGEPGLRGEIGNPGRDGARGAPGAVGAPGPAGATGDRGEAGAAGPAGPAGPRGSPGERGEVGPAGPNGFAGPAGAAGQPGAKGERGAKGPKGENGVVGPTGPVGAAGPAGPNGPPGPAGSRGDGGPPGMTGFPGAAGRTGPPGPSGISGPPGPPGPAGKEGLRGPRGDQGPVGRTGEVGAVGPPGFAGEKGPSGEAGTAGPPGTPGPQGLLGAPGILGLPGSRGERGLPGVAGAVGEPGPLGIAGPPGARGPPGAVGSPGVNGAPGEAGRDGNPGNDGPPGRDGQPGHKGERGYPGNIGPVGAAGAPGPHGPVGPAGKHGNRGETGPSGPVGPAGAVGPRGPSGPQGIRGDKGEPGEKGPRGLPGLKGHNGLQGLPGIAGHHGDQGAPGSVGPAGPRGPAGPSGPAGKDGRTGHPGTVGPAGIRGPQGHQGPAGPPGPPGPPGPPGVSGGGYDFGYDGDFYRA
Procedure for myocardial collagen: Myocardial infarction was induced in Sprague Dawley rats by occlusion of the left anterior descending coronary artery followed by reperfusion. The rats were anesthetized with an intraperitoneal (i.p.) injection of 100 μg pentobarbital sodium per gram body weight and a thorocotamy was performed. The pericardium was removed and the left anterior artery was sutured with a 7.0 silk suture for 60 minutes after which reperfusion was established.
Animals were sacrificed at 60 minutes post-injection and the heart removed and sectioned for analysis.
The slope for this correlation is a measure of efficacy.

As to `CC(C)[C@H](NC(=O)[C@@H]1CSSC[C@H](NC(=O)[C@H](Cc2c[nH]cn2)NC(=O)[C@H](Cc2c[nH]c3ccccc23)NC(=O)[C@H](CCCCNC(=O)CC[C@H](C(=O)O)N2CCN(CC(=O)O)CCN(CC(=O)O)CCN(CC(=O)O)CC2)NC(=O)CC[C@H](C(=O)O)N2CCN(CC(=O)O)CCN(CC(=O)O)CCN(CC(=O)O)CC2)C(=O)N[C@@H](Cc2ccc(O)cc2)C(=O)N[C@@H]([C@@H](C)O)C(=O)N[C@@H](CCCCNC(=O)CC[C@H](C(=O)O)N2CCN(CC(=O)O)CCN(CC(=O)O)CCN(CC(=O)O)CC2)C(=O)N[C@@H](Cc2ccccc2)C(=O)N2CCC[C@H]2C(=O)N[C@@H](Cc2c[nH]cn2)C(=O)N[C@@H](Cc2c[nH]cn2)C(=O)N[C@@H](Cc2ccc(O)cc2)C(=O)N1)C(=O)N[C@@H](Cc1ccc(O)cc1)C(=O)N[C@@H](Cc1ccc(-c2ccccc2)cc1)C(N)=O` [Compound ID No. 4] (X1-K(X1)WHCYTK(X1)FPHHYCVY[Bip]-NH2; disulfide 4-13), the pKd on human type I collagen is 5.02; in data set [1], 5.34; in data set [3], 5.70. Further, the “R1 (relaxivity)” value in data set [2] was 51.2 mM⁻¹ s⁻¹. Moreover, the “calculated slope, hydroxyproline vs. gadolinium concentration” value with myocardial collagen was 3057.

Regarding `CC(C)C[C@H](NC(=O)[C@@H]1CSSC[C@H](NC(=O)[C@H](Cc2c[nH]cn2)NC(=O)[C@H](Cc2c[nH]c3ccccc23)NC(=O)[C@H](CCCCNC(=O)CC[C@H](C(=O)O)N2CCN(CC(=O)O)CCN(CC(=O)O)CCN(CC(=O)O)CC2)NC(=O)CC[C@H](C(=O)O)N2CCN(CC(=O)O)CCN(CC(=O)O)CCN(CC(=O)O)CC2)C(=O)N[C@@H]([C@@H](C)O)C(=O)N[C@@H]([C@@H](C)O)C(=O)N[C@@H](CCCCNC(=O)CC[C@H](C(=O)O)N2CCN(CC(=O)O)CCN(CC(=O)O)CCN(CC(=O)O)CC2)C(=O)N[C@@H](Cc2ccccc2)C(=O)N2CCC[C@H]2C(=O)N[C@@H](Cc2c[nH]cn2)C(=O)N[C@@H](Cc2c[nH]cn2)C(=O)N[C@@H](Cc2ccc(O)cc2)C(=O)N1)C(=O)N[C@@H](Cc1ccc(O)cc1)C(=O)N[C@@H](Cc1ccc(-c2ccccc2)cc1)C(N)=O` [Compound ID No. 2] (X1-K(X1)WHCTTK(X1)FPHHYCLY[Bip]-NH2; disulfide 4-13), the pKd at human type I collagen is 5.31; in data set [1], 4.69; in data set [3], 5.31. Besides, the “R1 (relaxivity)” value in data set [2] is 42.9 mM⁻¹ s⁻¹. Also, the “calculated slope, hydroxyproline vs. gadolinium concentration” value in the data set with myocardial collagen is given as 3184. Moreover, the “MR image uptake in scar vs healthy myocardium” value in data set [4] (chronic myocardial infarction, FIG. 25b) was “early uptake”.

For the molecule `O=C([O-])CN(CCN(CC(=O)[O-])CC(=O)O)CCN(CC(=O)[O-])CC(=O)O.[Gd+3]` [extracellular gadolinium, gadolinium diethylenetriaminepentaacetate, reference compound], the “CNR between infarct and blood” value in data set [4] (acute MI) came out at 6.3±3.4; in data set [4] (chronic MI (8 weeks)), 5±1.3.
